Source: patent publication US20240368191A1, “HETEROCYCLIC COMPOUNDS AND USES THEREOF” (Kumquat Biosciences Inc., priority 2021, published 2024)

What was measured:
[1] = target: T1, KRAS G12S 1-169 (His-tagged, GDP-loaded) (Homo sapiens, UniProt P01116, G12S); assay: Covalent modification of KRAS protein by intact-protein LC-MS; assay type: binding; settings: KRAS G12S, 24 hr
T1 construct: His -tagged GDP-loaded G12S 1-169; made in house; host or cells: E. coli, e.g. BL21 (DE3)
Summary of the method: (§1)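 Percent modification is derived from deconvoluted intact-protein LC-ESI-MS peak intensities of adducted versus unmodified KRAS. GDP-loaded His-tagged KRAS 1-169 (~2 μM, HEPES buffer at physiological conditions) was exposed to compound for 24 hrs at room temperature, then quenched with formic acid before C4 reversed-phase separation.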

[2] = target: T2, KRAS G12D 1-169 (His-tagged, GDP-loaded) (Homo sapiens, UniProt P01116, G12D); assay: as above; assay type: binding; settings: comparable or same conditions as K-Ras G12S
T2 construct: His -tagged GDP-loaded G12D 1-169; made in house; host or cells: E. coli, e.g. BL21 (DE3)
Summary of the method: as §1

K-Ras G12S = target: T3, K-Ras G12S (Homo sapiens, UniProt P01116, G12S); assay: HTRF assay, K-Ras G12S / SOS1 interaction; assay type: biochemical; settings: IC50 against K-Ras G12D divided by IC50 against K-Ras G12S
T3 construct: made in house; host or cells: E. coli, e.g. BL21 (DE3)
Text: This assay can be also used to assess a selective inhibition or reduction of signaling output of a mutant Ras protein relative to a wildtype, or relative to a different mutant Ras protein. For example, the equilibrium interaction of wildtype Kras or K-Ras mutant (e.g., wildtype or a mutant thereof including those mentioned in Example 6) with SOS1 (e.g., hSOS1) can be assessed as a proxy or an indication for a subject compound's ability to bind and inhibit Ras protein. HTRF assay detects from (i) a fluorescence resonance energy transfer (FRET) donor (e.g., antiGST-Europium) that is bound to GST-tagged K-Ras mutant to (ii) a FRET acceptor (e.g., anti-6His -XL665) bound to a His -tagged hSOS1.
The assay buffer can contain ˜5 mM HEPES pH 7.4, ˜150 mM NaCl, ˜1 mM DTT, 0.05% BSA and 0.0025% (v/v) Igepal. A Ras working solution is prepared in an assay buffer containing typically a suitable amount of the protein construct (e.g., GST-tagged K-Ras mutant) and the FRET donor (e.g., antiGST-Eu(K) from Cisbio, France). A SOS1 working solution is prepared in an assay buffer containing suitable amount of the protein construct (e.g., His -hSOS1) and the FRET acceptor (e.g., anti-6His -XL665 from Cisbio, France). A suitable amount of the protein construct will depend on the range of activity or range of IC50 values being detected or under investigation. For detecting IC50 within a range of 500 nM, the protein constructs of the same range of molarity can be utilized.
A fixed volume of DMSO with or without test compound is transferred into a 384-well plate. Ras working solution is added to all wells of the test plate. SOS1 working solution is added to all wells except for those that are subsequently filled the inhibitor control solution. Upon incubation for about 10 minutes or longer, the fluorescence is measured with a M1000Pro plate reader (Tecan) using HTRF detection (excitation 337 nm, emission 1: 620 nm, emission 2: 665 nm). Compounds are tested in duplicates at different concentrations (for example, 10 μM, 2.5 μM, 0.63 μM, 0.16 μM, 0.04 μM, 0.01 μM test compound). The ratiometric data (i.e., emission 2 divided by emission 1) is used to calculate IC50 values against Ras using GraphPad Prism (GraphPad software). Following this general procedure, samples were tested with or without a subject compound disclosed herein including compounds exemplified in Table 3 to assess their abilities to inhibit K-Ras G12S relative to another mutant (e.g., K-Ras G12D). Signaling output measured in terms of IC50 values can be obtained, a ratio of IC50 against one mutant relative to another mutant can be calculated. For instance, a selective reduction of K-Ras G12S signaling output can be evidenced by a ratio greater than one. In particular, a selective reduction of K-Ras G12S signaling relative to K-Ras G12D signaling is evidenced as the ratio of IC50 (against K-Ras G12D) to IC50 (against K-Ras G12S) is greater than 1.

A549 cells = assay: Cell proliferation assay (CellTiter-Glo), K-Ras G12S cells; assay type: cell-based; settings: A549 cells; Comparative Compound A lacking the warhead vs Compound B
Procedure: A549 (ATCC CRL-185) and LS123 (ATCC CRL-255) cell lines comprise a G12S mutation and can be used to assess Ras cellular signaling in vitro, e.g., in response to the compounds herein. A549 culture medium is prepared with RPMI-1640 and 10% heat-inactivated FBS. LS123 culture medium is prepared with RPMI-1640 and 10% heat-inactivated FBS. A CellTiter-Glo (CTG) luminescent based assay (Promega) is used to assess growth of the cells, as a measurement of the ability of the compounds herein to inhibit Ras signaling in the cells. The cells (e.g., 800 per well) are seeded in their respective culture medium in standard tissue culture-treated 384-well format plates (Falcon #08-772-116) or ultra-low attachment surface 384-well format plates (S-Bio #MS-9384WZ). The day after plating, cells are treated with a dilution series (e.g., a 10 point 3-fold dilution series) of the compounds herein (e.g., approximately 40 μl final volume per well). Cell viability can be monitored (e.g., approximately 6 days later) according to the manufacturer's recommended instructions, where the CellTiter-Glo reagent is added (e.g., approximately 10 μl), vigorously mixed, covered, and placed on a plate shaker (e.g., approximately for 20 min) to ensure sufficient cell lysis prior to assessment of luminescent signal. The IC50 values are determined using the four parameter fit. The resulting IC50 value is a measurement of the ability of the compounds herein to reduce cell growth of Ras-driven cells (e.g., tumor cell lines) in vitro and/or in vivo.

[3] = Metabolic (microsomal) stability assay; settings: pooled liver microsomes, pH 7.4
Procedure: The metabolic stability of a test compound is assayed at 37° C. using pooled liver microsomes (mouse or human liver microsomes). An aliquot of 10 μL of 50 μM test compound is mixed with 490 μL of 0.611 mg/mL liver microsomes, then 50 μL of the mixtures are dispensed to the 96 well tubes and warmed at 37° C. for 10 minutes. The reactions are initiated by adding 50 μL of the pre-warmed NADPH regeneration system solution (add 1.2 μL solution, 240 μl solution B, mix with 10.56 ml KPBS) and then incubated at 37° C. The final incubation solution contains 100 mM potassium phosphate (pH 7.4), 1.3 mM NADP+, 3.3 mM glucose 6-phosphate, 0.4 Unit/mL of glucose 6-phosphate dehydrogenase, 3.3 mM magnesium chloride, 0.3 mg/mL liver microsomes and 0.5 μM test article. After 0, 15, 30 and 60 minutes in a shaking incubator, the reactions are terminated by adding 100 μL of acetonitrile containing 200 nM buspirone as an internal standard. All incubations are conducted in duplicate. […] Samples are then centrifuged at 3500 rpm for 10 minutes (4° C.) using Sorvall Legend XRT Centrifuge (Thermo Scientific, GE). Supernatants (40 μL) are transferred into clean 96-deep well plates. Each well is added with 160 μL of ultrapure water (Milli-Q, Millipore Corporation) with 0.1% (v/v) formic acid (Fisher Chemical), mixed thoroughly and subjected to LC/MS/MS analysis in MRM positive ionization mode.
All the samples are measured using a mass spectrometer (QTrap 5500 quadrupole/ion trap) coupled with a Shimadzu HPLC system. The HPLC system consisted of a Shimadzu series degasser, binary quaternary gradient pumps, column heater coupled to an autosampler, and a Phenomenex Gemini-NX, C18, 3.0 μm or Phenomenex Lunar, C8, 5.0 μM HPLC column (Phenomenex, Torrance, CA), and eluted with a mobile phase gradient consisting of Solution A (0.1% formic acid water) and Solution B (0.1% formic acid acetonitrile). The column temperature is maintained at 40° C. All the analytes are detected with positive-mode electrospray ionization (ES+).
The half-life for the metabolic degradation of the test compound is calculated by plotting the time-course disappearance of the test compound during the incubation with liver microsomes. Each plot is fitted to a first-order equation for the elimination of the test compound (% remaining compound) versus time using non-linear regression (Equation 1).
where Ct is the mean relative substrate concentration at time t and C0 is the initial concentration (0.5 μM) at time 0. Note that the area ratio of the substrate peak to an internal standard peak is proportional to the analyte concentration and is used for regression analysis to derive a value of k.

| Compound | % G12S Modification at 24 hr. [1] | covalent labeling of K-Ras G12D [2] | Ratio of IC50 KRAS G12D vs. IC50 KRAS G12S (K-Ras G12S) | Compound IC50 Ratio IC50 (Cpd A):IC50 (Cpd B) (A549 cells) | half-life at 0.5 μM [3] [min] |
| --- | --- | --- | --- | --- | --- |
| 2-amino-4-(6-chloro-4-(8-(5- chloro-1H-1,2,4-triazole-1- carbonyl)-3,8-diazabicyclo- [3.2.1]octan-3-yl)-8-fluoro-2- (((2R,7aS)-2-fluorotetrahydro- 1H-pyrrolizin-7a(5H)-yl)meth- oxy)quinazolin-7-yl)-7-fluoro- benzo[b]thiophene-3-carbonitrile [Compound A194] | ++ (++ indicates between about 1%-20% labelling) | essentially no detectable labeling | A (A: indicates that the ratio of IC50 against KrasG12D vs. IC50 against KrasG12S is 1-fold or greater) | – | – |
| CN1CCC[C@H]1COc1nc(N2CCOC3(CN(C(=O)n4cncn4)C3)C2)c2cc(Cl)c(-c3ccc(F)c4sc(N)c(C#N)c34)c(F)c2n1 [Compound A137, 4-(4-(2-(1H-1,2,4-triazole-1-carbonyl)-5-oxa-2,8-diaza-spiro[3.5]nonan-8-yl)-6-chloro-8-fluoro-2-(((S)-1-methylpyr-rolidin-2-yl)methoxy)quinaz-olin-7-yl)-2-amino-7-fluoro-benzo[b]thiophene-3-carbonitrile] | – | essentially no detectable labeling | – | >4 (A549 cells) | – |
| (4-((7-(2-amino-7-fluorobenzo- [d]thiazol-4-yl)-6-chloro-8- fluoro-2-(((2R,7aS)-2-fluoro- tetrahydro-1H-pyrrolizin- 7a(5H)-yl)methoxy)quinazolin- 4-yl)amino)piperidin-1-yl)(2- chloro-1H-imidazol-1-yl)meth- anone [Compound A159] | – | – | A (A: indicates that the ratio of IC50 against KrasG12D vs. IC50 against KrasG12S is 1-fold or greater) | – | – |
| N#CCc1ncn(C(=O)N2CC3(C2)CN(c2nc(OC[C@@]45CCCN4C[C@H](F)C5)nc4c(F)c(-c5ccc(F)c6sc(N)c(C#N)c56)c(Cl)cc24)CCO3)n1 [Compound A110, 2-amino-4-(6-chloro-4-(2-(3-(cyanomethyl)-1H-1,2,4-triazole-1-carbonyl)-5-oxa-2,8-diazaspiro[3.5]nonan-8-yl)-8-fluoro-2-(((2R,7aS)-2-fluoro-tetrahydro-1H-pyrrolizin-7a(5H)-yl)methoxy)quinazolin-7-yl)-7-fluorobenzo[b]thio-phene-3-carbonitrile] | – | essentially no detectable labeling | – | >4 (A549 cells) | > 10 |
| N#Cc1cn(C(=O)N2CCC(Nc3nc(OC[C@@]45CCCN4C[C@H](F)C5)nc4c(F)c(-c5ccc(F)c6sc(N)nc56)c(Cl)cc34)CC2)cn1 [Compound A160, 1-(4-((7-(2-amino-7-fluorobenzo-[d]thiazol-4-yl)-6-chloro-8-fluoro-2-(((2R,7aS)-2-fluoro-tetrahydro-1H-pyrrolizin-7a(5H)-yl)methoxy)quinazolin-4-yl)amino)piperidine-1-car-bonyl)-1H-imidazole-4-carbo-nitrile] | – | – | A (A: indicates that the ratio of IC50 against KrasG12D vs. IC50 against KrasG12S is 1-fold or greater) | – | – |
| Cc1nc(C(C)C)nn1C(=O)N1CC2(C1)CN(c1nc(OC[C@@]34CCCN3C[C@H](F)C4)nc3c(F)c(-c4ccc(F)c5sc(N)c(C#N)c45)c(Cl)cc13)CCO2 [Compound A208, 2-amino-4-(6-chloro-8-fluoro-2-(((2R,7aS)-2-fluorotetrahydro-1H-pyrrolizin-7a(5H)-yl)meth-oxy)-4-(2-(3-isopropyl-5-meth-yl-1H-1,2,4-triazole-1-carbon-yl)-5-oxa-2,8-diazaspiro[3.5]-nonan-8-yl)quinazolin-7-yl)-7-fluorobenzo[b]thiophene-3-carbonitrile] | – | – | A (A: indicates that the ratio of IC50 against KrasG12D vs. IC50 against KrasG12S is 1-fold or greater) | – | – |
| Nc1nc2c(-c3c(Cl)cc4c(N[C@H]5C[C@H]6CC[C@@H](C5)N6C(=O)n5cncn5)nc(OC[C@@]56CCCN5C[C@H](F)C6)nc4c3F)ccc(F)c2s1 [Compound A207, ((1R,3r,5S)-3-((7-(2-amino-7-fluorobenzo[d]thiazol-4-yl)-6-chloro-8-fluoro-2-(((2R,7aS)-2-fluorotetrahydro-1H-pyrrolizin-7a(5H)-yl)methoxy)quinazolin-4-yl)amino)-8-azabicyclo[3.2.1]-octan-8-yl)(1H-1,2,4-triazol-1-yl)methanone] | +++ (+++ indicates greater than 20% labelling) | – | A (A: indicates that the ratio of IC50 against KrasG12D vs. IC50 against KrasG12S is 1-fold or greater) | – | – |
